Results from PubChem BioAssay (NCI).
“And” between values parts separate entries of the source, which are not always exact repeats. Equal values may be shown once.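 How tested: cells in 96-well plates exposed to compound for 48 hours at five concentrations. Abbreviation: GI50, concentration required for 50% inhibition of growth. TGI is the concentration that stops growth completely.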

Experiments:
P388/ADR leukemia = assay: NCI tumour cell line growth inhibition, 48 h
SN12K1 renal = assay: NCI tumour cell line growth inhibition, 48 h

| Compound | TGI (P388/ADR leukemia) | TGI (SN12K1 renal) | GI50 (P388/ADR leukemia) | GI50 (SN12K1 renal) |
| --- | --- | --- | --- | --- |
| CCOC(=O)NC1=C(N2CC2)C(=O)C(NC(=O)OCC)=C(N2CC2)C1=O | 17.6 µM | 15.7 µM | – | – |
| O=C(NCCCCCCNC(=O)n1cc(F)c(=O)[nH]c1=O)NCCCOCCOCCOCCOCCOCCOCCOCCOCCOCCOCCOCCOCCOCCOCCOCCOCCOCCOCCOCCOCCOCCCNC(=O)C(O)C(O)C(OC1OC(CO)C(O)C(O)C1O)C(O)CO (stereo not drawn) | > 100 µM | > 100 µM | – | – |
| CC(C)[NH-].CC(C)[NH-].O.O.[Cl][Pt+2][Cl] | 59.9 µM | 150 µM | 8.11 µM | 31.1 µM |
| NC(=S)N/N=C/c1ccc(O)cn1 | 154 µM and 24.5 µM | > 1500 µM | 0.943 µM and 1.5 µM | – |
| OC(C1CO1)C(O)C1CO1 (stereo not drawn) | 150 µM | 150 µM | – | – |
